Counter-ions that a name gives are not always drawn.
Tests used:
[1] = system: CHO‐hSGLT1/2 cells; experiment: Cytotoxicity assay (ToxiLight, adenylate kinase leakage into CHO‐SGLT1/2 inhibition assay media); parameters: CYTOTOXICITY / CY[…], mean / CYTOTOXICITY (% of vehicle control) Mean / CYTOTOXICITY, mean / CY[…] (% of vehicle control) Mean: dose or concentration left out as unconfirmed; conditions: for CYTOTOXICITY, mean: ToxiLight, adenylate kinase leakage;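 on all read-outs here: bioluminescent read-out of adenylate kinase released from lysed cells into the medium, given relative to DMSO vehicle control defined as 0%, higher meaning more cytolysis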
Method: The cytotoxicity of representative SGLT1/2 inhibitors and compounds from the different chemical clusters was tested. Cytotoxicity was determined using the ToxiLight bioassay kit according to the supplier's instructions. This nondestructive assay measures leakage of the enzyme adenylate kinase (AK) from damaged cells into the CHO‐SGLT1/2 inhibition assay media, ie the degree of cytolysis. […] Next, bioluminescence was measured using a FlexStation 3 Multi‐Mode Microplate Reader (Molecular Devices) by 1 second integrated reading. Cytotoxicity was expressed as the percentage of bioluminescence of the DMSO vehicle control which was set at 0%. If applicable, statistical outliers were determined using Grubbs’ test (alpha = 0.05) and excluded for calculation of the mean ± SD.

[2] = biological target: T1, SGLT1 (Homo sapiens, UniProt P13866); experiment: SGLT1 inhibition assay for validation of screening hits and similar compounds (1‐NBD‐glucose uptake, CHO‐hSGLT1 cells); assay type: cell-based; parameters: activity: dose or concentration left out as unconfirmed
T1 sequence (P13866 1-664): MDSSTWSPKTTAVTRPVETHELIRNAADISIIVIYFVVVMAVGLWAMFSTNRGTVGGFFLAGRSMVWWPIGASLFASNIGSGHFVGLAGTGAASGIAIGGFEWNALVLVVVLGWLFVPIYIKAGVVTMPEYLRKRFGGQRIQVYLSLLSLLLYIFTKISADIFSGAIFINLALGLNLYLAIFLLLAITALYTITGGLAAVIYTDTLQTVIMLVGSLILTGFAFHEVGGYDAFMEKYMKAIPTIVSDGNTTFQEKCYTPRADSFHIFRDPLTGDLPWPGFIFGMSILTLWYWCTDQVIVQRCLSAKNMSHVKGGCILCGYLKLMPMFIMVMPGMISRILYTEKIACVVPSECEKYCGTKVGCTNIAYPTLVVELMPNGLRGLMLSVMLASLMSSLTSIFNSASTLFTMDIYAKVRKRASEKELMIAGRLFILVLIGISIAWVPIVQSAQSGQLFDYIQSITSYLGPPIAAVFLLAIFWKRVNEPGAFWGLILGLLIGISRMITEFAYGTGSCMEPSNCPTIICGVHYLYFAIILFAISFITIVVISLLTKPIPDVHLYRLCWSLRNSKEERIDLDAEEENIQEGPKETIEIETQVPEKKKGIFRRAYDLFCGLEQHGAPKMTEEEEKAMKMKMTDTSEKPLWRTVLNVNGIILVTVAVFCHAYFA

[3] = biological target: T2, hSGLT2 (Homo sapiens, UniProt P31639); experiment: SGLT2 inhibition assay for validation of screening hits and similar compounds (1‐NBD‐glucose uptake, CHO‐hSGLT2 cells); assay type: cell-based; parameters: activity: dose or concentration left out as unconfirmed; conditions: for activity: compound, mean, normalized 1-NBD-glucose uptake, CHO-hSGLT2 cells; for SGLT2/SGLT1 ACTIVITY RATIO 5 uM Mean: ratio of normalized SGLT2 to SGLT1 activity at 5 uM; for SGLT2/SGLT1 ACTIVITY RATIO, first concentration / SGLT2/SGLT1 ACTIVITY RATIO, second concentration: ratio of normalized SGLT2 to SGLT1 activity
T2 sequence (P31639 1-672): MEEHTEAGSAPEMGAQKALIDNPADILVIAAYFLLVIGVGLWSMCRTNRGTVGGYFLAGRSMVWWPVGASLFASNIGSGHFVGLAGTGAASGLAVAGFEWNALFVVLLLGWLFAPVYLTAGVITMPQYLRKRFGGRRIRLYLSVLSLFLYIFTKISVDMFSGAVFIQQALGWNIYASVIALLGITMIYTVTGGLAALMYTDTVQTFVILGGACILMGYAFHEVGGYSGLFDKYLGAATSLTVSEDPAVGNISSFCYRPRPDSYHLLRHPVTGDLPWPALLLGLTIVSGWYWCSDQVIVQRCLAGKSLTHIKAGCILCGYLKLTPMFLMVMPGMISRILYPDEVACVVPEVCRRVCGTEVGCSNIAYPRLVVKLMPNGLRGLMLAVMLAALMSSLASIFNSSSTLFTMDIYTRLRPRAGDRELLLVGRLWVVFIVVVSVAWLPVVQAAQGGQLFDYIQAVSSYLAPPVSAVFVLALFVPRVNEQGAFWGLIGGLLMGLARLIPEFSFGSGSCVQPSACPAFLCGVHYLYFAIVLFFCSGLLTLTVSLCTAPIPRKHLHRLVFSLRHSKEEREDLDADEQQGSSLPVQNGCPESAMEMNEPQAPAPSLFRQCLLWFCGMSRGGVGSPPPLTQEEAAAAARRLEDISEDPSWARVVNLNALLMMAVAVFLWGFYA

[4] = mean inhibition with 50 μmol/L inhibitor

| Structure (SMILES) | activity [3] [%] | SGLT2/SGLT1 ACTIVITY RATIO 5 uM Mean [3] | CYTOTOXICITY, mean [1] | SGLT2/SGLT1 ACTIVITY RATIO, first concentration [3] | SGLT2/SGLT1 ACTIVITY RATIO, second concentration [3] | CY[…] (% of vehicle control) Mean ([1]; mean) | further results |
| --- | --- | --- | --- | --- | --- | --- | --- |
| C/C=C(/C)C(=O)O[C@@H]1Cc2c(ccc3ccc(=O)oc23)OC1(C)C [Selinidin] | 94 | 0.952 |  |  |  |  | CYTOTOXICITY (% of vehicle control) Mean ([1]; mean): -6 % of vehicle control; activity ([2]; compound, mean, normalized 1-NBD-glucose uptake, CHO-hSGLT1 cells): 99%; inhibition at 50 µM ([2]; mean inhibition with 50 μmol/L inhibitor, read-out: SGLT1 inhibition): 12%; inhibition at 50 µM [3, 4]: 25% |
| CC1(C)Oc2ccc3ccc(=O)oc3c2CC1O (centres unmarked) [Lomatin] |  | 1.0 |  |  |  |  | CYTOTOXICITY (% of vehicle control) Mean ([1]; mean): -26 % of vehicle control; SGLT1 inhibition [2, 4]: no SGLT inhibition; SGLT2 inhibition [3, 4]: no SGLT inhibition |
| CC1(C)OC(=O)C=C[C@]2(C)[C@H]3CC[C@@]4(C)[C@H](c5ccoc5)OC(=O)[C@H]5O[C@]54[C@]3(C)C(=O)C[C@@H]12 [Obacunone] |  |  | -21 | 1.2 | 1.1 |  |  |
| CC1(C)C(=O)C=C[C@@]2(C)C1=C(O)C(=O)[C@]1(C)[C@@H]2[C@@H](O)C[C@@]2(C)[C@H](c3ccoc3)C[C@H]3O[C@]321 [11beta-Hydroxycedrelone] |  |  | -13 | 1.7 | 1.2 |  |  |
| CC(=O)O[C@@H]1C[C@H](O)[C@@]23CO[C@@H](O)[C@]1(C)[C@@H]2C[C@@H](O)[C@]1(C)[C@@H]3C(=O)[C@H](OC(C)=O)[C@@]2(C)[C@H](c3ccoc3)C[C@H]3O[C@]321 [Toosendanin] |  |  | -4.53 | 1.0 | 1.0 |  |  |
| CN1[C@@H]2CC[C@H]1C[C@@H](OC(c1ccccc1)c1ccccc1)C2 [Benztropine mesylate] | 73 |  |  |  |  | -10 % of vehicle control |  |
| CCN(CC)CCOC(=O)C(c1ccccc1)C1CCCCC1 (centres unmarked) [Drofenine HCl] | 72 |  |  |  |  | 1.71 % of vehicle control |  |
| CN1CCOC(c2ccccc2)c2ccccc2C1 (centres unmarked) [Nefopam HCl] |  | 0.9 |  |  |  | -25 % of vehicle control |  |
| CC1(C)C(=O)C=C[C@@]2(C)C1=C(O)C(=O)[C@]1(C)[C@@H]2[C@@H](O)CC2=C(c3ccoc3)C[C@@H](O)[C@]21C [Walsuronoid B] |  |  | -23 | 0.9 | 1.0 |  |  |
| Cc1ccccc1C(OCCN(C)C)c1ccccc1 (centres unmarked) [Orphenadrine HCl] |  |  |  |  |  |  | CYTOTOXICITY (% of vehicle control) Mean ([1]; mean): 9 % of vehicle control |
| CN1CCC[C@@H]1CCO[C@](C)(c1ccccc1)c1ccc(Cl)cc1 [Clemastine fumarate] |  |  |  |  |  |  | CY[…] 50 mM ([1]; mean, at 50 mM (so in the source)): 2.45 |
| CNCCCN1c2ccccc2CCc2ccccc21 [Desipramine HCl] |  | 0.759 |  |  |  | -19 % of vehicle control |  |
| CC(=O)O[C@H]1C[C@@H](OC(C)=O)[C@@]2(C)CO[C@H]3[C@@H](O)[C@@]4(C)C5=CC[C@@H](c6ccoc6)[C@]5(C)CC[C@@H]4[C@]1(C)[C@@H]32 [1,3-Diacetylvilasinin] |  |  | -18 | 1.1 | 1.1 |  |  |
| COc1cc2c(=O)c(-c3ccc(O)cc3)coc2cc1O[C@@H]1O[C@H](CO)[C@@H](O)[C@H](O)[C@H]1O [Glycitin] | 106 | 1.1 |  |  |  |  | CYTOTOXICITY (% of vehicle control) Mean ([1]; mean): -22 % of vehicle control |
| CC1(C)C(=O)C=C[C@@]2(C)C1=C(O)C(=O)[C@]1(C)[C@@H]2CC[C@@]2(C)[C@H](c3ccoc3)C[C@H]3O[C@]321 [Cedrelone] |  |  | -26 | 1.2 | 1.1 |  |  |
| CC(CN(C)C)CN1c2ccccc2CCc2ccccc21 (centres unmarked) [Trimipramine maleate] | 87 | 1.0 |  |  |  | -9 % of vehicle control |  |

From article PMC6664820, “Novel natural and synthetic inhibitors of solute carriers SGLT1 and SGLT2” (Pharmacology Research & Perspectives, 2019)
